Experimental data reported in patent publication US20070049564A1 (Wyeth, priority 2005, published 2007).
In brackets after ≈: the same amount, converted by molar mass. Like-named read-outs stand apart in the source and are kept apart here.

How the values were obtained:
E. faecalis GC 2242 = assay: MIC, broth microdilution; settings: Enterococcus faecalis
c. albicans GC 3066 = assay: MIC, broth microdilution
S. aureus GC 1079 = assay: MIC, broth microdilution; settings: Staphylococcus aureus
P. aeruginosa GC 2214 = assay: MIC, broth microdilution; settings: Pseudomonas aeruginosa
S. epidermidis GC 4935 = assay: MIC, broth microdilution; settings: Staphylococcus epidermidis
S. pneumoniae+ GC 4465 = assay: MIC, broth microdilution; settings: Streptococcus pneumoniae
E. coli GC 4559 = assay: MIC, broth microdilution; settings: Escherichia coli
Staph. aureus Smith = assay: In vivo activity (oral, iv; ED50) against Staph. aureus Smith in mice
Method: Representative examples of compounds of Formula I were tested for the oral efficacy using S. aureus Smith in mice.

S. pyogenes GC 4563 = assay: MIC, broth microdilution; settings: Streptococcus pyogenes
E. coli GC 2233 = assay: MIC, broth microdilution; settings: Escherichia coli
E. coli GC 1073 = assay: MIC, broth microdilution; settings: Escherichia coli
S. aureus GC 1131 = assay: MIC, broth microdilution; settings: Staphylococcus aureus
E. coli GC 2234 = assay: MIC, broth microdilution; settings: Escherichia coli
E. coli GC 2235 = assay: MIC, broth microdilution; settings: Escherichia coli
S. aureus GC 2216 = assay: MIC, broth microdilution; settings: Staphylococcus aureus
E. faecium GC 4556 = assay: MIC, broth microdilution; settings: Enterococcus faecium
S. aureus GC 6335 = assay: MIC, broth microdilution; settings: Staphylococcus aureus
E. coli GC 2270 = assay: MIC, broth microdilution; settings: Escherichia coli
E. coli GC 2236 = assay: MIC, broth microdilution; settings: Escherichia coli
E. coli GC 2271 = assay: MIC, broth microdilution; settings: Escherichia coli

`CN(C)c1cc(NC(=O)CN(C(=O)OCOC(=O)C2CCCC2)C(C)(C)C)c(O)c2c1C[C@H]1C[C@H]3[C@H](N(C)C)C(O)=C(C(N)=O)C(=O)[C@@]3(O)C(O)=C1C2=O` [Example 46, ({[(2-{[(5aR,6aS,7S,10aS)-9-(aminocarbonyl)-4,7-bis(dimethylamino)-1,8,10a,11-tetrahydroxy-10,12-dioxo-5,5a,6,6a,7,10,10a,12-octahydrotetracen-2-yl]amino}-2-oxoethyl)(tert-butyl)amino]carbonyl}oxy)methyl cyclopentanecarboxylate] showed an MIC (E. faecalis GC 2242; GC2242, read-out: MINIMAL INHIBITORY CONCENTRATION MIC, pre-incubated in Human Serum) of 1 µg/mL (≈ 1.32 µM), an MIC (E. faecalis GC 2242; GC2242, read-out: MINIMAL INHIBITORY CONCENTRATION MIC, pre-incubated in Mouse Serum) of 0.5 µg/mL (≈ 0.662 µM) and an MIC (E. faecalis GC 2242; GC2242, read-out: MINIMAL INHIBITORY CONCENTRATION MIC, pre-incubated in Water) of 1 µg/mL (≈ 1.32 µM). The MIC (c. albicans GC 3066; Candida albicans, GC3066, read-out: MINIMAL INHIBITORY CONCENTRATION MIC) was greater than 64 µg/mL, the “MINIMAL INHIBITORY CONCENTRATION MIC” value (c. albicans GC 3066; pre-incubated in Human Serum) was greater than 64 UG/ML and the “MINIMAL INHIBITORY CONCENTRATION MIC” value (c. albicans GC 3066; pre-incubated in Mouse Serum) was greater than 64 UG/ML. The MIC (S. aureus GC 1079; GC1079, read-out: MINIMAL INHIBITORY CONCENTRATION MIC, pre-incubated in Human Serum) was 0.5 µg/mL (≈ 0.662 µM), the MIC (S. aureus GC 1079; GC1079, read-out: MINIMAL INHIBITORY CONCENTRATION MIC, pre-incubated in Mouse Serum) was 0.5 µg/mL (≈ 0.662 µM) and the MIC (S. aureus GC 1079; GC1079, read-out: MINIMAL INHIBITORY CONCENTRATION MIC, pre-incubated in Water) was 0.5 µg/mL (≈ 0.662 µM). The MIC (P. aeruginosa GC 2214; GC2214, read-out: MINIMAL INHIBITORY CONCENTRATION MIC, pre-incubated in Human Serum) was greater than 64 µg/mL, the MIC (P. aeruginosa GC 2214; GC2214, read-out: MINIMAL INHIBITORY CONCENTRATION MIC, pre-incubated in Mouse Serum) was 16 µg/mL (≈ 21.2 µM) and the MIC (P. aeruginosa GC 2214; GC2214, read-out: MINIMAL INHIBITORY CONCENTRATION MIC, pre-incubated in Water) was greater than 64 µg/mL. For the same molecule, the MIC (S. epidermidis GC 4935; GC4935, read-out: MINIMAL INHIBITORY CONCENTRATION MIC, pre-incubated in Human Serum) was 1 µg/mL (≈ 1.32 µM), the MIC (S. epidermidis GC 4935; GC4935, read-out: MINIMAL INHIBITORY CONCENTRATION MIC, pre-incubated in Mouse Serum) was 1 µg/mL (≈ 1.32 µM) and the MIC (S. epidermidis GC 4935; GC4935, read-out: MINIMAL INHIBITORY CONCENTRATION MIC, pre-incubated in Water) was 2 µg/mL (≈ 2.65 µM). For the same molecule, the MIC (S. pneumoniae+ GC 4465; read-out: MINIMAL INHIBITORY CONCENTRATION MIC, pre-incubated in Human Serum) was 1 µg/mL (≈ 1.32 µM), the MIC (S. pneumoniae+ GC 4465; read-out: MINIMAL INHIBITORY CONCENTRATION MIC, pre-incubated in Mouse Serum) was 1 µg/mL (≈ 1.32 µM) and the MIC (S. pneumoniae+ GC 4465; read-out: MINIMAL INHIBITORY CONCENTRATION MIC, pre-incubated in Water) was 1 µg/mL (≈ 1.32 µM). The MIC (E. coli GC 4559; GC4559, read-out: MINIMAL INHIBITORY CONCENTRATION MIC, pre-incubated in Human Serum) was 8 µg/mL (≈ 10.6 µM), the MIC (E. coli GC 4559; GC4559, read-out: MINIMAL INHIBITORY CONCENTRATION MIC, pre-incubated in Mouse Serum) was 1 µg/mL (≈ 1.32 µM) and the MIC (E. coli GC 4559; GC4559, read-out: MINIMAL INHIBITORY CONCENTRATION MIC, pre-incubated in Water) was greater than 64 µg/mL. The ED50 (Staph. aureus Smith; Staphylococcus aureus, in Mus musculus, po, read-out: ED50 Staph Smith SOD) was 8.4 mg/kg, the ED50 (Staph. aureus Smith; iv, read-out: ED50 Staph Smith SIV) was 0.83 mg/kg and the MIC (S. pyogenes GC 4563; GC4563, read-out: MINIMAL INHIBITORY CONCENTRATION MIC, pre-incubated in Human Serum) was 0.25 µg/mL (≈ 0.331 µM). The MIC (S. pyogenes GC 4563; GC4563, read-out: MINIMAL INHIBITORY CONCENTRATION MIC, pre-incubated in Mouse Serum) was 0.12 µg/mL (≈ 0.159 µM), the MIC (S. pyogenes GC 4563; GC4563, read-out: MINIMAL INHIBITORY CONCENTRATION MIC, pre-incubated in Water) was 0.25 µg/mL (≈ 0.331 µM) and the MIC (E. coli GC 2233; GC2233, read-out: MINIMAL INHIBITORY CONCENTRATION MIC, pre-incubated in Human Serum) was 4 µg/mL (≈ 5.29 µM). For the same molecule, the MIC (E. coli GC 2233; GC2233, read-out: MINIMAL INHIBITORY CONCENTRATION MIC, pre-incubated in Mouse Serum) was 0.5 µg/mL (≈ 0.662 µM), the MIC (E. coli GC 2233; GC2233, read-out: MINIMAL INHIBITORY CONCENTRATION MIC, pre-incubated in Water) was 64 µg/mL (≈ 84.7 µM) and the MIC (E. coli GC 1073; GC1073, read-out: MINIMAL INHIBITORY CONCENTRATION MIC, pre-incubated in Human Serum) was 8 µg/mL (≈ 10.6 µM). For the same molecule, the MIC (E. coli GC 1073; GC1073, read-out: MINIMAL INHIBITORY CONCENTRATION MIC, pre-incubated in Mouse Serum) was 1 µg/mL (≈ 1.32 µM), the MIC (E. coli GC 1073; GC1073, read-out: MINIMAL INHIBITORY CONCENTRATION MIC, pre-incubated in Water) was greater than 64 µg/mL and the MIC (S. aureus GC 1131; GC1131, read-out: MINIMAL INHIBITORY CONCENTRATION MIC, pre-incubated in Human Serum) was 0.5 µg/mL (≈ 0.662 µM). For the same molecule, the MIC (S. aureus GC 1131; GC1131, read-out: MINIMAL INHIBITORY CONCENTRATION MIC, pre-incubated in Mouse Serum) was 0.5 µg/mL (≈ 0.662 µM), the MIC (S. aureus GC 1131; GC1131, read-out: MINIMAL INHIBITORY CONCENTRATION MIC, pre-incubated in Water) was 0.5 µg/mL (≈ 0.662 µM) and the MIC (E. coli GC 2234; GC2234, read-out: MINIMAL INHIBITORY CONCENTRATION MIC, pre-incubated in Human Serum) was 4 µg/mL (≈ 5.29 µM). For the same molecule, the MIC (E. coli GC 2234; GC2234, read-out: MINIMAL INHIBITORY CONCENTRATION MIC, pre-incubated in Mouse Serum) was 0.5 µg/mL (≈ 0.662 µM), the MIC (E. coli GC 2234; GC2234, read-out: MINIMAL INHIBITORY CONCENTRATION MIC, pre-incubated in Water) was 64 µg/mL (≈ 84.7 µM) and the MIC (E. coli GC 2235; GC2235, read-out: MINIMAL INHIBITORY CONCENTRATION MIC, pre-incubated in Human Serum) was 4 µg/mL (≈ 5.29 µM). For the same molecule, the MIC (E. coli GC 2235; GC2235, read-out: MINIMAL INHIBITORY CONCENTRATION MIC, pre-incubated in Mouse Serum) was 0.5 µg/mL (≈ 0.662 µM), the MIC (E. coli GC 2235; GC2235, read-out: MINIMAL INHIBITORY CONCENTRATION MIC, pre-incubated in Water) was 64 µg/mL (≈ 84.7 µM) and the MIC (S. aureus GC 2216; GC2216, read-out: MINIMAL INHIBITORY CONCENTRATION MIC, pre-incubated in Human Serum) was 0.5 µg/mL (≈ 0.662 µM). For the same molecule, the MIC (S. aureus GC 2216; GC2216, read-out: MINIMAL INHIBITORY CONCENTRATION MIC, pre-incubated in Mouse Serum) was 0.5 µg/mL (≈ 0.662 µM), the MIC (S. aureus GC 2216; GC2216, read-out: MINIMAL INHIBITORY CONCENTRATION MIC, pre-incubated in Water) was 1 µg/mL (≈ 1.32 µM) and the MIC (E. faecium GC 4556; GC4556, read-out: MINIMAL INHIBITORY CONCENTRATION MIC, pre-incubated in Human Serum) was 1 µg/mL (≈ 1.32 µM). For the same molecule, the MIC (E. faecium GC 4556; GC4556, read-out: MINIMAL INHIBITORY CONCENTRATION MIC, pre-incubated in Mouse Serum) was 0.5 µg/mL (≈ 0.662 µM), the MIC (E. faecium GC 4556; GC4556, read-out: MINIMAL INHIBITORY CONCENTRATION MIC, pre-incubated in Water) was 1 µg/mL (≈ 1.32 µM) and the MIC (S. aureus GC 6335; GC6335, read-out: MINIMAL INHIBITORY CONCENTRATION MIC, pre-incubated in Human Serum) was 0.5 µg/mL (≈ 0.662 µM). The MIC (S. aureus GC 6335; GC6335, read-out: MINIMAL INHIBITORY CONCENTRATION MIC, pre-incubated in Mouse Serum) was 1 µg/mL (≈ 1.32 µM), the MIC (S. aureus GC 6335; GC6335, read-out: MINIMAL INHIBITORY CONCENTRATION MIC, pre-incubated in Water) was 1 µg/mL (≈ 1.32 µM) and the MIC (E. coli GC 2270; GC2270, read-out: MINIMAL INHIBITORY CONCENTRATION MIC, pre-incubated in Human Serum) was 4 µg/mL (≈ 5.29 µM). The MIC (E. coli GC 2270; GC2270, read-out: MINIMAL INHIBITORY CONCENTRATION MIC, pre-incubated in Mouse Serum) was 0.5 µg/mL (≈ 0.662 µM), the MIC (E. coli GC 2270; GC2270, read-out: MINIMAL INHIBITORY CONCENTRATION MIC, pre-incubated in Water) was greater than 64 µg/mL and the MIC (E. coli GC 2236; GC2236, read-out: MINIMAL INHIBITORY CONCENTRATION MIC, pre-incubated in Human Serum) was 4 µg/mL (≈ 5.29 µM). It also gave an MIC (E. coli GC 2236; GC2236, read-out: MINIMAL INHIBITORY CONCENTRATION MIC, pre-incubated in Mouse Serum) of 0.5 µg/mL (≈ 0.662 µM), an MIC (E. coli GC 2236; GC2236, read-out: MINIMAL INHIBITORY CONCENTRATION MIC, pre-incubated in Water) of 64 µg/mL (≈ 84.7 µM) and an MIC (E. coli GC 2271; GC2271, read-out: MINIMAL INHIBITORY CONCENTRATION MIC, pre-incubated in Human Serum) of 4 µg/mL (≈ 5.29 µM). For the same molecule, the MIC (E. coli GC 2271; GC2271, read-out: MINIMAL INHIBITORY CONCENTRATION MIC, pre-incubated in Mouse Serum) was 0.5 µg/mL (≈ 0.662 µM) and the MIC (E. coli GC 2271; GC2271, read-out: MINIMAL INHIBITORY CONCENTRATION MIC, pre-incubated in Water) was 64 µg/mL (≈ 84.7 µM).
